According to patent US11707442B2, “Antibacterial and antifungal compounds” (The General Hospital Corporation, priority 2015, dated 2023):
Converted amounts (≈) assume the structure as drawn. Like-named read-outs stand apart in the source and are kept apart here.

Assays:
A. baumannii = assay: MIC, broth microdilution; format: cell-based, Acinetobacter baumannii
Excerpt: (§1) Bacterial strains and growth conditions and persister isolation: methicillin-resistant S. aureus (MRSA) strain MW2 BAA-1707, vancomycin-resistant S. aureus strain VRS 1, 11 clinical S. aureus isolates, 8 clinical Enterococcus faecium isolates, Klebsiella pneumoniae WGLW2 (BEI Resources, Manassas, Va., USA), Acinetobacter baumannii ATCC 17978, Pseudomonas aeruginosa PA14, and Enterobacter aerogenes ATCC 13048 were used to test antimicrobial activity (See Table 1a). S. aureus and E. faecium strains were grown in tryptic soy broth (TSB) (BD, Franklin Lakes, N.J., USA) or brain-heart infusion (BHI) broth (BD, Franklin Lakes, N.J., USA), respectively at 37° C. at 225 rpm. K. pneumoniae, A. baumannii, P. aeruginosa, and E. aerogenes were grown in Luria Bertani (LB) broth (BD, Franklin Lakes, N.J., USA).
(§2) To test the bacterial MICs for compounds described herein, the total volume in each well was 100 μl of test compounds and bacterial cells in MH broth. […] The bacterial concentration was adjusted to an initial OD600 of 0.03. After incubation at 35° C. for 18 hrs, the absorbance was measured at 595 nm in accordance with CLSI document M07-A8. The MICs of antibiotics were determined by the standard microdilution method recommended by the Clinical and Laboratory Standards Institute.

P. aeruginosa = assay: MIC, broth microdilution; format: cell-based, Pseudomonas aeruginosa
Excerpt: as §1, §2

[1] = test system: S. aureus MW2 (MRSA) in neutropenic mouse thigh; conditions: previous study (Conlon 2013); cited from earlier work
E. aerogenes ATCC 13048 = assay: MIC, broth microdilution; format: cell-based, Enterobacter aerogenes
Excerpt: as §1, §2

K. pneumonia WGLW2 = assay: MIC, broth microdilution; format: cell-based, Klebsiella pneumoniae
Excerpt: as §1, §2

S. aureus = assay: Minimal inhibitory concentration (MIC), broth microdilution; format: cell-based, Staphylococcus aureus
Excerpt: as §1, §2

E. faecium = assay: MIC, broth microdilution; format: cell-based, Enterococcus faecium; conditions: for MIC: Enterococcus faecium
Excerpt: as §1, §2

[2] = test system: S. aureus persister cells (stationary phase); assay: Persister killing assay; format: cell-based, Staphylococcus aureus; conditions: 4 μg/ml CD437 or CD1530 or 10 μg/ml gentamicin alone
Experimental: Persister killing assay. […] Persister cells of these 13 S. aureus strains were developed by growing cultures overnight to stationary phase at 37° C. at 225 rpm. The overnight cultures were washed three times with PBS and diluted to ˜10^7 CFU/ml with the same buffer, which is the same concentration as used in the killing kinetics assay described herein. 1 ml of the persister suspension containing appropriate concentrations of antibiotics was added to the wells of a 2 ml deep well assay block (Corning Costar 3960) and incubated at 37° C., with shaking at 225 rpm. At specific times, 50 μl samples were removed, serially diluted and spot-plated on TSA plates to enumerate the number of live cells. These experiments were conducted in triplicate.

Compound: CN[C@H](CC(C)C)C(=O)N[C@H]1C(=O)N[C@@H](CC(N)=O)C(=O)N[C@H]2C(=O)N[C@H]3C(=O)N[C@H](C(=O)N[C@H](C(=O)O)c4cc(O)cc(O)c4-c4cc3ccc4O)[C@H](O)c3ccc(c(Cl)c3)Oc3cc2cc(c3O[C@@H]2O[C@H](CO)[C@@H](O)[C@H](O)[C@H]2O[C@H]2C[C@](C)(N)[C@H](O)[C@H](C)O2)Oc2ccc(cc2Cl)[C@H]1O [Vancomycin, vancomycin]
- MIC (A. baumannii; Acinetobacter baumannii, ATCC17978, read-out: Minimum inhibitory concentration): > 64 µg/mL
- MIC (P. aeruginosa; Pseudomonas aeruginosa, PA14, read-out: Minimum inhibitory concentration): > 64 µg/mL
- reduction of MRSA CFUs in the deep-seated mouse thigh infection model [1]: unable to significantly reduce
- MIC (E. aerogenes ATCC 13048; Klebsiella aerogenes, ATCC13048, read-out: Minimum inhibitory concentration): > 64 µg/mL
- MIC (K. pneumonia WGLW2; Klebsiella pneumoniae, WGLW2, read-out: Minimum inhibitory concentration): > 64 µg/mL
- MIC (S. aureus; Staphylococcus aureus, S. aureus MW2 mutant SP1-8 (graS)): 0.5 µg/mL (≈ 0.345 µM)
- MIC (S. aureus; Staphylococcus aureus, S. aureus MW2 mutant SP1-48 (graS, manA)): 0.5 µg/mL (≈ 0.345 µM)
- MIC (S. aureus; Staphylococcus aureus, S. aureus MW2 mutant SP1-74 (graS, manA, MW2474)): 0.5 µg/mL (≈ 0.345 µM)
- MIC (S. aureus; Staphylococcus aureus, S. aureus MW2 mutant SP1-100 (graS, manA, MW2474)): 0.5 µg/mL (≈ 0.345 µM)
- MIC (S. aureus; Staphylococcus aureus, S. aureus MW2 mutant SP2-13 (yjbH)): 1 µg/mL (≈ 0.69 µM)
- MIC (S. aureus; Staphylococcus aureus, S. aureus MW2 mutant SP2-52 (yjbH, dltB)): 0.5 µg/mL (≈ 0.345 µM)
- MIC (S. aureus; Staphylococcus aureus, S. aureus MW2 mutant SP2-59 (yjbH, dltB, manA)): 0.5 µg/mL (≈ 0.345 µM)
- MIC (S. aureus; Staphylococcus aureus, S. aureus MW2 mutant SP2-65 (yjbH, dltB, manA, MW1685)): 0.5 µg/mL (≈ 0.345 µM)
- MIC (S. aureus; Staphylococcus aureus, S. aureus MW2 mutant SP2-100 (yjbH dltB, manA, MW1685)): 0.5 µg/mL (≈ 0.345 µM)
- MIC (S. aureus; Staphylococcus aureus, S. aureus MW2 serial passage culture SP1-1 (no mutated gene)): 1 µg/mL (≈ 0.69 µM)
- MIC (S. aureus; Staphylococcus aureus, S. aureus MW2 serial passage culture SP2-1 (no mutated gene)): 1 µg/mL (≈ 0.69 µM)
- MIC (S. aureus; Staphylococcus aureus, read-out: Drug MIC, Staphylococcus aureus clinical isolate BF1 (Table 5)): 2 µg/mL (≈ 1.38 µM)
- MIC (S. aureus; Staphylococcus aureus, read-out: Drug MIC, Staphylococcus aureus clinical isolate BF2 (Table 5)): 2 µg/mL (≈ 1.38 µM)
- MIC (S. aureus; Staphylococcus aureus, read-out: Drug MIC, Staphylococcus aureus clinical isolate BF3 (Table 5)): 4 µg/mL (≈ 2.76 µM)
- MIC (S. aureus; Staphylococcus aureus, read-out: Drug MIC, Staphylococcus aureus clinical isolate BF4 (Table 5)): 2 µg/mL (≈ 1.38 µM)
- MIC (S. aureus; Staphylococcus aureus, read-out: Drug MIC, Staphylococcus aureus clinical isolate BF5 (Table 5)): 2 µg/mL (≈ 1.38 µM)
- MIC (S. aureus; Staphylococcus aureus, read-out: Drug MIC, Staphylococcus aureus clinical isolate BF6 (Table 5)): 2 µg/mL (≈ 1.38 µM)
- MIC (S. aureus; Staphylococcus aureus, read-out: Drug MIC, Staphylococcus aureus clinical isolate BF7 (Table 5)): 2 µg/mL (≈ 1.38 µM)
- MIC (S. aureus; Staphylococcus aureus, read-out: Drug MIC, Staphylococcus aureus clinical isolate BF8 (Table 5)): 2 µg/mL (≈ 1.38 µM)
- MIC (S. aureus; Staphylococcus aureus, read-out: Drug MIC, Staphylococcus aureus clinical isolate BF9 (Table 5)): 2 µg/mL (≈ 1.38 µM)
- MIC (S. aureus; Staphylococcus aureus, read-out: Drug MIC, Staphylococcus aureus clinical isolate BF10 (Table 5)): 2 µg/mL (≈ 1.38 µM)
- MIC (S. aureus; Staphylococcus aureus, read-out: Drug MIC, Staphylococcus aureus clinical isolate BF11 (Table 5)): 2 µg/mL (≈ 1.38 µM)
- MIC (S. aureus; Staphylococcus aureus, read-out: Minimum inhibitory concentration, S. aureus BF1): 1 µg/mL (≈ 0.69 µM)
- MIC (S. aureus; Staphylococcus aureus, read-out: Minimum inhibitory concentration, S. aureus BF2): 1 µg/mL (≈ 0.69 µM)
- MIC (S. aureus; Staphylococcus aureus, read-out: Minimum inhibitory concentration, S. aureus BF3): 1 µg/mL (≈ 0.69 µM)
- MIC (S. aureus; Staphylococcus aureus, read-out: Minimum inhibitory concentration, S. aureus BF4): 0.5 µg/mL (≈ 0.345 µM)
- MIC (S. aureus; Staphylococcus aureus, read-out: Minimum inhibitory concentration, S. aureus BF5): 0.5 µg/mL (≈ 0.345 µM)
- MIC (S. aureus; Staphylococcus aureus, read-out: Minimum inhibitory concentration, S. aureus BF6): 0.5 µg/mL (≈ 0.345 µM)
- MIC (S. aureus; Staphylococcus aureus, read-out: Minimum inhibitory concentration, S. aureus BF7): 0.5 µg/mL (≈ 0.345 µM)
- MIC (S. aureus; Staphylococcus aureus, read-out: Minimum inhibitory concentration, S. aureus BF8): 0.5 µg/mL (≈ 0.345 µM)
- MIC (S. aureus; Staphylococcus aureus, read-out: Minimum inhibitory concentration, S. aureus BF9): 0.5 µg/mL (≈ 0.345 µM)
- MIC (S. aureus; Staphylococcus aureus, read-out: Minimum inhibitory concentration, S. aureus BF10): 0.5 µg/mL (≈ 0.345 µM)
- MIC (S. aureus; Staphylococcus aureus, read-out: Minimum inhibitory concentration, S. aureus BF11): 1 µg/mL (≈ 0.69 µM)
- MIC (S. aureus; Staphylococcus aureus, read-out: Minimum inhibitory concentration, S. aureus MW2): 1 µg/mL (≈ 0.69 µM)
- MIC (S. aureus; Staphylococcus aureus, read-out: Minimum inhibitory concentration, S. aureus VRS1): > 64 µg/mL
- MIC (E. faecium; read-out: Minimum inhibitory concentration, E. faecium C68): 64 µg/mL (≈ 44.2 µM)
- MIC (E. faecium; read-out: Minimum inhibitory concentration, E. faecium D14): 2 µg/mL (≈ 1.38 µM)
- MIC (E. faecium; read-out: Minimum inhibitory concentration, E. faecium D24): 1 µg/mL (≈ 0.69 µM)
- MIC (E. faecium; read-out: Minimum inhibitory concentration, E. faecium D25): 1 µg/mL (≈ 0.69 µM)
- MIC (E. faecium; read-out: Minimum inhibitory concentration, E. faecium D29): 2 µg/mL (≈ 1.38 µM)
- MIC (E. faecium; read-out: Minimum inhibitory concentration, E. faecium E007): 1 µg/mL (≈ 0.69 µM)
- MIC (E. faecium; read-out: Minimum inhibitory concentration, E. faecium WB213): 16 µg/mL (≈ 11 µM)
- MIC (E. faecium; read-out: Minimum inhibitory concentration, E. faecium WC176): 64 µg/mL (≈ 44.2 µM)

Compound: gentamicin
- viability of MW2 persister cells, single agent [2]: did not significantly affect
- Minimum inhibitory concentration (A. baumannii; A. baumannii ATCC 17978): 1 µg/mL
- Minimum inhibitory concentration (P. aeruginosa; P. aeruginosa PA14): 2 µg/mL
- reduction of MRSA CFUs in the deep-seated mouse thigh infection model [1]: unable to significantly reduce
- Minimum inhibitory concentration (E. aerogenes ATCC 13048; E. aerogenes ATCC 13048): 2 µg/mL
- Minimum inhibitory concentration (K. pneumonia WGLW2; K. pneumonia WGLW2): 1 µg/mL
- Minimum inhibitory concentration (S. aureus; S. aureus BF1): 1 µg/mL
- Minimum inhibitory concentration (S. aureus; S. aureus BF2): 1 µg/mL
- Minimum inhibitory concentration (S. aureus; S. aureus BF3): 1 µg/mL
- Minimum inhibitory concentration (S. aureus; S. aureus BF4): 1 µg/mL
- Minimum inhibitory concentration (S. aureus; S. aureus BF5): 1 µg/mL
- Minimum inhibitory concentration (S. aureus; S. aureus BF6): 1 µg/mL
- Minimum inhibitory concentration (S. aureus; S. aureus BF7): 1 µg/mL
- Minimum inhibitory concentration (S. aureus; S. aureus BF8): 1 µg/mL
- Minimum inhibitory concentration (S. aureus; S. aureus BF9): 1 µg/mL
- Minimum inhibitory concentration (S. aureus; S. aureus BF10): 1 µg/mL
- Minimum inhibitory concentration (S. aureus; S. aureus BF11): 1 µg/mL
- Minimum inhibitory concentration (S. aureus; S. aureus MW2): 1 µg/mL
- MIC (S. aureus; S. aureus MW2 mutant SP1-8 (graS)): 0.25 µg/mL
- MIC (S. aureus; S. aureus MW2 mutant SP1-48 (graS, manA)): 0.25 µg/mL
- MIC (S. aureus; S. aureus MW2 mutant SP1-74 (graS, manA, MW2474)): 0.25 µg/mL
- MIC (S. aureus; S. aureus MW2 mutant SP1-100 (graS, manA, MW2474)): 0.25 µg/mL
- MIC (S. aureus; S. aureus MW2 mutant SP2-13 (yjbH)): 1 µg/mL
- MIC (S. aureus; S. aureus MW2 mutant SP2-52 (yjbH, dltB)): 0.25 µg/mL
- MIC (S. aureus; S. aureus MW2 mutant SP2-59 (yjbH, dltB, manA)): 0.25 µg/mL
- MIC (S. aureus; S. aureus MW2 mutant SP2-65 (yjbH, dltB, manA, MW1685)): 0.25 µg/mL
- MIC (S. aureus; S. aureus MW2 mutant SP2-100 (yjbH dltB, manA, MW1685)): 0.25 µg/mL
- MIC (S. aureus; S. aureus MW2 serial passage culture SP1-1 (no mutated gene)): 1 µg/mL
- MIC (S. aureus; S. aureus MW2 serial passage culture SP2-1 (no mutated gene)): 1 µg/mL
- Minimum inhibitory concentration (S. aureus; S. aureus VRS1): >64 µg/mL
- Minimum inhibitory concentration (E. faecium; E. faecium C68): >64 µg/mL
- Minimum inhibitory concentration (E. faecium; E. faecium D14): 32 µg/mL
- Minimum inhibitory concentration (E. faecium; E. faecium D24): >64 µg/mL
- Minimum inhibitory concentration (E. faecium; E. faecium D25): 32 µg/mL
- Minimum inhibitory concentration (E. faecium; E. faecium D29): 64 µg/mL
- Minimum inhibitory concentration (E. faecium; E. faecium E007): >64 µg/mL
- Minimum inhibitory concentration (E. faecium; E. faecium WB213): 32 µg/mL
- Minimum inhibitory concentration (E. faecium; E. faecium WC176): 64 µg/mL
